Laboratory results: publication PMC7156458, “Synthetic biology based construction of biological activity-related library of fungal decalin-containing diterpenoid pyrones” (Nature Communications, 2020)

Target: Aβ42 (Homo sapiens, UniProt P05067)
Assay: Th-T (thioflavin-T) assay of Aβ42 aggregation
Type: biochemical
Conditions: for Th-T fluorescence of Aβ42 with compound, mean of three wells (Fig. 7a source data): concentration 50, unit not given

Sequence of Aβ42 (P05067 672-713): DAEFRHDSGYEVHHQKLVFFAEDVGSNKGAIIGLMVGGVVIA

Structure (SMILES): C=C1CCC2C(C)(CCC=C(C)C)C(O)CCC2(C)C1Cc1c(OC)oc(CO)c(C)c1=O (stereo not drawn) [Compound 12]
- Th-T fluorescence of Aβ42 with compound, mean of three wells (Fig. 7a source data) (time-course reading M143): 1.6964
- Th-T fluorescence of Aβ42 with compound, mean of three wells (Fig. 7a source data) (time-course reading M144): 1.681
- Th-T fluorescence of Aβ42 with compound, mean of three wells (Fig. 7a source data) (time-course reading M145): 1.696
- Th-T fluorescence of Aβ42 (sheet Fig. 7a), mean of three wells (head suffix _10 (concentration 10), reading M63): 3.408
- Th-T fluorescence of Aβ42 (sheet Fig. 7a), mean of three wells (head suffix _10 (concentration 10), reading M64): 3.415
- Th-T fluorescence of Aβ42 (sheet Fig. 7a), mean of three wells (head suffix _10 (concentration 10), reading M65): 3.397
- Th-T fluorescence of Aβ42 (sheet Fig. 7a), mean of three wells (head suffix _10 (concentration 10), reading M66): 3.3918
- Th-T fluorescence of Aβ42 (sheet Fig. 7a), mean of three wells (head suffix _10 (concentration 10), reading M67): 3.364
- Th-T fluorescence of Aβ42 (sheet Fig. 7a), mean of three wells (head suffix _10 (concentration 10), reading M68): 3.364
- Th-T fluorescence of Aβ42 (sheet Fig. 7a), mean of three wells (head suffix _10 (concentration 10), reading M69): 3.344
- Th-T fluorescence of Aβ42 (sheet Fig. 7a), mean of three wells (head suffix _10 (concentration 10), reading M70): 3.357
- Th-T fluorescence of Aβ42 (sheet Fig. 7a), mean of three wells (head suffix _10 (concentration 10), reading M71): 3.333
- Th-T fluorescence of Aβ42 (sheet Fig. 7a), mean of three wells (head suffix _10 (concentration 10), reading M72): 3.332
- Th-T fluorescence of Aβ42 (sheet Fig. 7a), mean of three wells (head suffix _10 (concentration 10), reading M73): 3.302
- Th-T fluorescence of Aβ42 (sheet Fig. 7a), mean of three wells (head suffix _10 (concentration 10), reading M74): 3.307
- Th-T fluorescence of Aβ42 (sheet Fig. 7a), mean of three wells (head suffix _10 (concentration 10), reading M75): 3.295
- Th-T fluorescence of Aβ42 (sheet Fig. 7a), mean of three wells (head suffix _10 (concentration 10), reading M76): 3.265
- Th-T fluorescence of Aβ42 (sheet Fig. 7a), mean of three wells (head suffix _10 (concentration 10), reading M77): 3.239
- Th-T fluorescence of Aβ42 (sheet Fig. 7a), mean of three wells (head suffix _10 (concentration 10), reading M78): 3.245
- Th-T fluorescence of Aβ42 (sheet Fig. 7a), mean of three wells (head suffix _10 (concentration 10), reading M79): 3.216
- Th-T fluorescence of Aβ42 (sheet Fig. 7a), mean of three wells (head suffix _10 (concentration 10), reading M80): 3.214
- Th-T fluorescence of Aβ42 (sheet Fig. 7a), mean of three wells (head suffix _10 (concentration 10), reading M81): 3.199
- Th-T fluorescence of Aβ42 (sheet Fig. 7a), mean of three wells (head suffix _10 (concentration 10), reading M82): 3.17
- Th-T fluorescence of Aβ42 (sheet Fig. 7a), mean of three wells (head suffix _10 (concentration 10), reading M83): 3.151
- Th-T fluorescence of Aβ42 (sheet Fig. 7a), mean of three wells (head suffix _10 (concentration 10), reading M84): 3.157
- Th-T fluorescence of Aβ42 (sheet Fig. 7a), mean of three wells (head suffix _20 (concentration 20), reading M63): 2.111
- Th-T fluorescence of Aβ42 (sheet Fig. 7a), mean of three wells (head suffix _20 (concentration 20), reading M64): 2.103
- Th-T fluorescence of Aβ42 (sheet Fig. 7a), mean of three wells (head suffix _20 (concentration 20), reading M65): 2.121
- Th-T fluorescence of Aβ42 (sheet Fig. 7a), mean of three wells (head suffix _20 (concentration 20), reading M66): 2.113
- Th-T fluorescence of Aβ42 (sheet Fig. 7a), mean of three wells (head suffix _20 (concentration 20), reading M67): 2.119
- Th-T fluorescence of Aβ42 (sheet Fig. 7a), mean of three wells (head suffix _20 (concentration 20), reading M68): 2.108
- Th-T fluorescence of Aβ42 (sheet Fig. 7a), mean of three wells (head suffix _20 (concentration 20), reading M69): 2.09
- Th-T fluorescence of Aβ42 (sheet Fig. 7a), mean of three wells (head suffix _20 (concentration 20), reading M70): 2.126
- Th-T fluorescence of Aβ42 (sheet Fig. 7a), mean of three wells (head suffix _20 (concentration 20), reading M71): 2.116
- Th-T fluorescence of Aβ42 (sheet Fig. 7a), mean of three wells (head suffix _20 (concentration 20), reading M72): 2.113
- Th-T fluorescence of Aβ42 (sheet Fig. 7a), mean of three wells (head suffix _20 (concentration 20), reading M73): 2.112
- Th-T fluorescence of Aβ42 (sheet Fig. 7a), mean of three wells (head suffix _20 (concentration 20), reading M74): 2.11
- Th-T fluorescence of Aβ42 (sheet Fig. 7a), mean of three wells (head suffix _20 (concentration 20), reading M75): 2.104
- Th-T fluorescence of Aβ42 (sheet Fig. 7a), mean of three wells (head suffix _20 (concentration 20), reading M76): 2.0857
- Th-T fluorescence of Aβ42 (sheet Fig. 7a), mean of three wells (head suffix _20 (concentration 20), reading M77): 2.081
- Th-T fluorescence of Aβ42 (sheet Fig. 7a), mean of three wells (head suffix _20 (concentration 20), reading M78): 2.114
- Th-T fluorescence of Aβ42 (sheet Fig. 7a), mean of three wells (head suffix _20 (concentration 20), reading M79): 2.113
- Th-T fluorescence of Aβ42 (sheet Fig. 7a), mean of three wells (head suffix _20 (concentration 20), reading M80): 2.11
- Th-T fluorescence of Aβ42 (sheet Fig. 7a), mean of three wells (head suffix _20 (concentration 20), reading M81): 2.089
- Th-T fluorescence of Aβ42 (sheet Fig. 7a), mean of three wells (head suffix _20 (concentration 20), reading M82): 2.121
- Th-T fluorescence of Aβ42 (sheet Fig. 7a), mean of three wells (head suffix _20 (concentration 20), reading M83): 2.116
- Th-T fluorescence of Aβ42 (sheet Fig. 7a), mean of three wells (head suffix _20 (concentration 20), reading M84): 2.082
- Th-T fluorescence of Aβ42 (sheet Fig. 7a), mean of three wells (head suffix _50 (concentration 50), reading M63): 1.459
- Th-T fluorescence of Aβ42 (sheet Fig. 7a), mean of three wells (head suffix _50 (concentration 50), reading M64): 1.462
- Th-T fluorescence of Aβ42 (sheet Fig. 7a), mean of three wells (head suffix _50 (concentration 50), reading M65): 1.426
- Th-T fluorescence of Aβ42 (sheet Fig. 7a), mean of three wells (head suffix _50 (concentration 50), reading M66): 1.435
- Th-T fluorescence of Aβ42 (sheet Fig. 7a), mean of three wells (head suffix _50 (concentration 50), reading M67): 1.458
- Th-T fluorescence of Aβ42 (sheet Fig. 7a), mean of three wells (head suffix _50 (concentration 50), reading M68): 1.453
- Th-T fluorescence of Aβ42 (sheet Fig. 7a), mean of three wells (head suffix _50 (concentration 50), reading M69): 1.447
- Th-T fluorescence of Aβ42 (sheet Fig. 7a), mean of three wells (head suffix _50 (concentration 50), reading M70): 1.435
- Th-T fluorescence of Aβ42 (sheet Fig. 7a), mean of three wells (head suffix _50 (concentration 50), reading M71): 1.445
- Th-T fluorescence of Aβ42 (sheet Fig. 7a), mean of three wells (head suffix _50 (concentration 50), reading M72): 1.442
